Where a name gives a salt, the structure may show the parent alone.
Columns and labels:
[1] = target: Human recombinant monoamine oxidase MAO-A (Homo sapiens (Human), UniProt P21397); assay: Monoamine oxidase assay (kynuramine to 4-hydroxyquinoline fluorescence), MAO-A; format: biochemical; settings: for IC50: Table 2; for Ki: Table 1, term Ki value used as designation for the IC50 value
Source text: (§1) Human recombinant monoamine oxidase proteins MAO-A and MAO-B were purchased from Sigma Aldrich. MAOs catalyze the oxidative deamination of primary, secondary and tertiary amines. In order to monitor MAO enzymatic activities and/or their inhibition rate by inhibitor(s) of interest, a fluorescence-based (inhibitor)-screening assay was set up. 3-(2-Aminophenyl)-3-oxopropanamine (kynuramine dihydrobromide, Sigma Aldrich), a non fluorescent compound was chosen as a substrate. Kynuramine is a non-specific substrate for both MAO-A and MAO-B activities. While undergoing oxidative deamination by MAO activities, kynuramine is converted into 4-hydroxyquinoline (4-HQ), a resulting fluorescent product.
(§2) The monoamine oxidase activity was estimated by measuring the conversion of kynuramine into 4-hydroxyquinoline. Assays were conducted in 96-well black plates with clear bottom (Corning) in a final volume of 100 μL. The assay buffer was 100 mM HEPES, pH 7.5. Each experiment was performed in duplicate within the same experiment.
Clorgyline and Deprenyl (Sigma Aldrich) was used as a control for specific inhibition of MAO-A and MAO-B respectively.
After leaving the enzyme(s) interacting with the inhibitor, KM of kynuramine was added to each reaction for MAO-B and MAO-A assay respectively, and the reaction was left for 1 hour at 37° C. in the dark. The oxidative deamination of the substrate was stopped by adding 50 μL of NaOH 2N.
(§3) The IC50 values of each inhibitor were calculated with GraphPad Prism Software.

[2] = target: Human recombinant monoamine oxidase MAO-B (Homo sapiens (Human), UniProt P27338); assay: Monoamine oxidase assay (kynuramine to 4-hydroxyquinoline fluorescence), MAO-B; format: biochemical; settings: Table 2
Source text: as §1, §2
Clorgyline and Deprenyl (Sigma Aldrich) was used as a control for specific inhibition of MAO-A and MAO-B respectively. […]
as §3

THP-1 cells = assay: Induction of differentiation of THP-1 leukemia cells (CD11b membrane expression, flow cytometry); format: cell-based, human; settings: at 100 nM, 96 h treatment
Protocol: By analyzing the induction of CD11b membrane expression on THP-1 cells we are assessing the ability of LSD1 inhibitors to induce terminal monocytic differentiation of a MLL-AF9 AML cell line. […] They carry t(9;11)(p21;q23) leading to MLL-MLLT3 (MLL-AF9) fusion gene. This cell line can undergo monocytic differentiation upon treatment with the appropriate stimulus. […] In this assay, 150,000 THP-1 cells were seeded in 1 ml of complete culture medium in 6-well tissue culture plates. […] Cells were kept in the presence of test compound for 96 h at a 5% CO2 atmosphere at 37° C. After this treatment period, cells were harvested, washed twice with PBS buffer and placed in a V-bottom 96-well plate. Each treated sample was split in two. […] Percentage of CD11b positive cells, as an indicator of monocytic differentiation, was determined compared to isotype control antibody stained cells. EC50 values were calculated by non-linear regression analysis.

Sequence of Human recombinant monoamine oxidase MAO-A (P21397 whole entry): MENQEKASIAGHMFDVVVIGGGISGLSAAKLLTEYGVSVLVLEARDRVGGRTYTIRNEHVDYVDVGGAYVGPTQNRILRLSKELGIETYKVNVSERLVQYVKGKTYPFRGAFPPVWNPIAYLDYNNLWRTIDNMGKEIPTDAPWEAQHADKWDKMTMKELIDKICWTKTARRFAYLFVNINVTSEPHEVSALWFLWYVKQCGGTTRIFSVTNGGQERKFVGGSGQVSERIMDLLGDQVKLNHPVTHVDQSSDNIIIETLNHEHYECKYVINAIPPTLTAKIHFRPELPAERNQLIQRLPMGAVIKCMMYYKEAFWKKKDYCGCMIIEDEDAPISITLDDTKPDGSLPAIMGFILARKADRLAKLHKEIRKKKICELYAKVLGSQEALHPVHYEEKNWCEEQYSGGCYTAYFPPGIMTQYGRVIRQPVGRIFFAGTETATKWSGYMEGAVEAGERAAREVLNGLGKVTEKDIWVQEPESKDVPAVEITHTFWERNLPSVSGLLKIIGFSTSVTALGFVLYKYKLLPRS

Compound	IC50 [1] [µM]	IC50 [2] [µM]	Ki [1] [µM]	CD11b+ cells (THP-1 cells) [% CD11b+ cells at 100 nM]
NC1CCC(N[C@@H]2C[C@@H]2c2ccccc2)CC1 (relative stereo) [Example 21, N1-((cis)-2-phenylcyclopropyl)cyclohexane-1,4-diamine]	5.23	–	–	–
NC1CCC(N[C@H]2C[C@@H]2c2ccccc2)CC1 (mixture of isomers) [Example 1, N1-((trans)-2-phenylcyclopropyl)cyclohexane-1,4-diamine dihydrochloride]	> 100	–	> 40	–
N[C@H]1CC[C@@H](N[C@@H]2C[C@H]2c2ccccc2)CC1 [Example 4, (cis)-N1-((1R,2S)-2-phenylcyclopropyl)cyclohexane-1,4-diamine hydrochloride]	> 100	–	> 40	–
N[C@H]1CC[C@@H](N[C@H]2C[C@@H]2c2ccccc2)CC1 [Example 2, (cis)-N1-((1S,2R)-2-phenylcyclopropyl)cyclohexane-1,4-diamine hydrochloride]	> 100	–	> 40	–
N[C@H]1CC[C@H](N[C@@H]2C[C@H]2c2ccccc2)CC1 [Example 5, (trans)-N1-((1R,2S)-2-phenylcyclopropyl)cyclohexane-1,4-diamine hydrochloride]	> 100	–	–	–
Cl.N[C@H]1CC[C@H](N[C@H]2C[C@@H]2c2ccccc2)CC1 [Example 3, (trans)-N1-((1S,2R)-2-phenylcyclopropyl)cyclohexane-1,4-diamine hydrochloride]	> 100	–	> 40	13

Source: patent US9469597B2, “(Hetero)aryl cyclopropylamine compounds as LSD1 inhibitors” (ORYZON GENOMICS, S.A., priority 2011, dated 2016)
